Consider ten molecules from patent publication US6451828B1, “Selective inhibition of glutaminase by bis-thiadiazoles” (priority 2000, dated 2002).

The target of one experiment is T1, human kidney glutaminase (Homo sapiens, UniProt O94925).
T1 construct: made in house; host or cells: SF9 insect cells (alternatively HEK human kidney cells); cell lysate
T1 sequence (O94925 55-669): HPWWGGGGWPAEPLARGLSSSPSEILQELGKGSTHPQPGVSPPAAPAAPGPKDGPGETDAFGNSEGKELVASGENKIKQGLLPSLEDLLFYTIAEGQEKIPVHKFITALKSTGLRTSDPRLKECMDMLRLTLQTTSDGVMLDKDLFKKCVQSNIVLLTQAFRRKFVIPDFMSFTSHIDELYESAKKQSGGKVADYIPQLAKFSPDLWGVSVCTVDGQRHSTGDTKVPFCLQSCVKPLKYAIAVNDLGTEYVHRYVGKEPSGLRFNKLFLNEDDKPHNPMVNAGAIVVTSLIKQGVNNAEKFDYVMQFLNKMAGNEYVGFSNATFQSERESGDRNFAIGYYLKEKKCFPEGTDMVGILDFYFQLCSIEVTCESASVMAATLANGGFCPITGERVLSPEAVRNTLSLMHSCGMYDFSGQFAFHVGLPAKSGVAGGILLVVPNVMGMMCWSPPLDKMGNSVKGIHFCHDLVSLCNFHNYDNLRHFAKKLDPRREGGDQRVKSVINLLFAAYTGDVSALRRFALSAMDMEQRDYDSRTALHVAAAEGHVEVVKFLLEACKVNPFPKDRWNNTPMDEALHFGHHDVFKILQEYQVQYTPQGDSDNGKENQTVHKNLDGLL
The experiment can be described thus: Glutaminase inhibition: cell free assay. Type of experiment: biochemical. As for the experimental part: Compounds of formula I were tested for inhibition of human kidney glutaminase as described in Example 2.
Glutaminase Inhibition: Cell Free Assay
Glutaminase gene-transfected SF9 cells were collected in a 50-mL polypropylene conical tube by centrifugation at 500×g for 10 min (Eppendorf Centrifuge 5810R, F34-6-38 rotor). The supernatant was discarded, and the cell pellet was stored at −80° C. For preparation of the lysate, the cells were thawed on ice and resuspended by pipetting in 0.8 mL cold lysis buffer with 0.5 mM 4-(2-aminoethyl)- benzenesulfonyl fluoride (AEBSF), a serine protease inhibitor. The suspension was stored in ice for 20 min, then subjected to two freeze-thaw cycles (liquid nitrogen followed by a room temperature water bath).
The volume of the cell homogenate was measured, and 1/3 volume of 1 M sucrose was added, to give a final concentration of 0.25 M sucrose. Aliquots 100 μL in volume were placed in 1.5 mL microtubes and stored at −80° C.
Alternatively, HEK (human kidney) cells were used. The medium was removed by aspiration, 5 mL PBS/1 mM EDTA was added, and the culture was incubate for 3 min to allow cells to detach. The cells were collected in a 50-mL conical tube using Eppendorf Centrifuge 5810R, F34-6-38 rotor, and spun at 200×g for 5 min. The supernatant was discarded, and the cell pellet was resuspended pipetting (approximately 0.12 g wet weight) in 0.3 mL lysis buffer with 0.5 mM AEBSF. The tube was left in ice for 20 min. […] subjected to two freeze-thaw cycles as described above. Aliquots 100 μL in volume were placed in 1.5 mL microtubes and stored at −80° C.
The activity of the enzyme was determined colorimetrically. One unit of enzyme activity is defined as the amount of enzyme required to generate net OD 540nm=0.6 in a total reaction volume of 220 μL in one hour at room temperature.
Assay plates were prepared containing 2 μL test compound in DMSO/well. The enzyme was diluted to 1 unit (liver) or 0.8 unit (kidney)/100 μL in glutaminase assay buffer, and 100 μl diluted enzyme was added to each well of the assay plate by Multidrop (Labsystems). The contents were mixed by shaking at full speed for 1 min on TiterMix 100 (Brinkmann). The plates were preincubated at room temperature (RT) for 20 min to allow binding of test compounds to glutaminase, and 50 μL glutamine solution (7 mM in assay buffer) was added to each well by Multidrop. The contents were shaken at full speed for 30 sec on TiterMix 100 (Brinkmann), and the plates were then incubated at RT for 60 min (liver) or 90 min (kidney). To stop the reactions, 20 μL HCl (0.3 N) was added to each well by Multidrop and mixed immediately by shaking for 30 sec on TiterMix 100.
For quantification, glutamate (formed by glutaminase-catalyzed hydrolysis of glutamine) is oxidized to 2-oxoglutarate by a second enzyme, glutamate dehydrogenase (GDH), with the concomitant production of the reduced form of nicotinamide adenine dinucleotide (NADH). Reduction of nitro blue tetrazolium (NBT) in the assay solution by NADH, catalyzed by phenazine methosulphate (PMS), results in the formation of a blue-purple formazan. The absorption of formazan at 540 nm is linearly proportional to the concentration of glutamate up to 200 μM.
NBT/GDH reagent (50 μl) was added to each well by Multidrop and mixed by shaking for 30 sec on TiterMix 100, and the plates were incubated at RT for 20 min to allow color formation by the GDH reaction. Glutamate concentration was determined from formazan concentration as determined by reading OD540 nm on a SpectraMax 340.

Another experiment has as its system microglia (BV-2) cells. The experiment can be described thus: Inhibition of microglial glutamate secretion. Type of experiment: cell-based. Here is the method: As described in Wood, glutamate efflux from microglia is dependent on the presence of added external glutamine. […] Therefore, the concentration of glutamate in the culture medium can be used directly as a measure of glutamate production by these cells.
In assaying the invention compounds, microglia (BV-2) cells were cultured using standard methods, as described in Example 4. On the day of the experiment, cells were incubated in glutamine free medium for 1 to 1.5 hours, then glutamine and test compounds, dissolved in glutamine free medium, were added. Aliquots were removed at 2 h and 4 h for glutamate analysis.
Inhibition of Microglial Glutamate Secretion
BV-2 cells were cultured in 24 well plates using Dulbeccos minimal essential medium containing 10% heat inactivated fetal bovine serum, and grown to 70-80% confluency before use. On the day of the experiment, cells were placed in glutamine free medium for 1 to 1.5 hours. […] This solution was used to replace one half of the 0.5 mL culture medium volume at the end of the glutamine free incubation. Aliquots of 10 μL medium were removed at 2 h and 4 h and placed in 96 well microtiter plates with 90 μL DMF/water (1:9) for glutamate analysis.

The subject of a further experiment is isolated neurons. As to conditions: Dugan et al., 1995; read-out: IC50 for toxicity on isolated neurons; cited from earlier work.

pIC50: −log10 of the molar value.

Regarding `O=C(Nc1nnc(CCSCCc2nnc(NC(=O)c3ccco3)s2)s1)c1ccco1` [SNX-1836], the pIC50 against human kidney glutaminase is 5.95.

In the case of `CC(C)(C)C(=O)Nc1nnc(CCSCCc2nnc(NC(=O)C(C)(C)C)s2)s1` [SNX-1851], the pIC50 at human kidney glutaminase was 5.78.

`COc1ccccc1C(=O)Nc1nnc(CCSCCc2nnc(NC(=O)c3ccccc3OC)s2)s1` [SNX-1855] had a pIC50 at human kidney glutaminase of 5.31. The same measure, in the same setting: the figure for `Cc1cccc(C(=O)Nc2nnc(CCSCCc3nnc(NC(=O)c4cccc(C)c4)s3)s2)c1` [SNX-1831] is 5.95.

As to `[N-]=[N+]=CC(=O)CC[C@H](N)C(=O)O` [DON, 6-diazo-5-oxo-L-norleucine, reference compound], the “Glutamine dependent glutamate efflux from microglia” value with microglia (BV-2) cells is listed as “inhibited”.

Turning to `CCOC(=O)Nc1nnc(CCSCCc2nnc(NC(=O)OCC)s2)s1` [SNX-1852], the negative-log IC50 (pIC50) on human kidney glutaminase is 5.75. Still for that read-out and setting: the same measure for `O=C(Nc1nnc(CCSCCc2nnc(NC(=O)c3cccs3)s2)s1)c1cccs1` [SNX-1837]: 6.41. As for `N[C@@H](CCC(=O)O)C(=O)O` [glutamate], the pIC50 in the experiment on isolated neurons is 5.00 to 5.30. In turn, `COc1ccc(C(=O)Nc2nnc(CCSCCc3nnc(NC(=O)c4ccc(OC)cc4)s3)s2)cc1` [SNX-1832] had a pIC50 on human kidney glutaminase of 6.34. Same read-out and setting: the same measure for `O=C(Nc1nnc(CCSCCc2nnc(NC(=O)c3ccccc3)s2)s1)c1ccccc1` [SNX-1830]: 5.97.
